Drawing on patent US9730929B2, “Substituted aminoimidazopyridazines” (BAYER INTELLECTUAL PROPERTY GMBH, priority 2011, dated 2017), this text covers IC50 for 19 compounds.

T1 sequence (Q9BUB5 other isoform, or with tags, fused parts or gaps T344D): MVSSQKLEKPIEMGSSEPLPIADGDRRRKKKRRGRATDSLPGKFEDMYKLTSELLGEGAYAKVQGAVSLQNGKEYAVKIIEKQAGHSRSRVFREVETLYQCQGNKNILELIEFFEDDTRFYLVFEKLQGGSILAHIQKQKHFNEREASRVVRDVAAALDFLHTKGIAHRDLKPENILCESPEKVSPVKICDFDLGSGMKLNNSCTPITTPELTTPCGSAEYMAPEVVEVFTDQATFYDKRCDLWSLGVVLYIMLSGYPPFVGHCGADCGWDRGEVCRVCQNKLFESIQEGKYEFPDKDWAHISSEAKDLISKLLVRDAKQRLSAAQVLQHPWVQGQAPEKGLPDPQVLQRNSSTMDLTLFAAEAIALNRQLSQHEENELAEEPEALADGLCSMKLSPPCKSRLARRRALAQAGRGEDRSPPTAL

One test concerns the target T1, human full-length MKNK1 (Homo sapiens (Human), UniProt Q9BUB5, T344D). The test can be described thus: MKNK1 kinase high ATP assay (TR-FRET, 2 mM ATP). It counts as biochemical. The following applies: ATP final conc. 2 mM; 15 min preincubation. On the procedure:
MKNK1-inhibitory activity at high ATP of compounds of the present invention after their preincubation with MKNK1 was quantified employing the TR-FRET-based MKNK1 high ATP assay as described in the following paragraphs.
As substrate for the kinase reaction the biotinylated peptide biotin-Ahx-[…] (C-terminus in amide form) was used, which can be purchased e.g. from the company Biosyntan (Berlin-Buch, Germany).
(§1) For the assay 50 nL of a 100 fold concentrated solution of the test compound in DMSO was pipetted into a black low volume 384 well microtiter plate (Greiner Bio-One, Frickenhausen, Germany), 2 μL of a solution of MKNK1 in aqueous assay buffer [50 mM HEPES pH 7.5, 5 mM magnesium chloride, 1.0 mM dithiothreitol, 0.005% (v/v) Nonidet-P40 (Sigma)] was added and the mixture was incubated for 15 min at 22° C. to allow pre-binding of the test compounds to the enzyme before the start of the kinase reaction. Then the kinase reaction was started by the addition of 3 μL of a solution of adenosine-tri-phosphate (ATP, 3.3 mM=>final conc. in the 5 μL assay volume is 2 mM) and substrate (0.1 μM=>final conc. in the 5 μL assay volume is 0.06 μM) in assay buffer and the resulting mixture was incubated for a reaction time of 30 min at 22° C. The concentration of MKNK1 was adjusted depending of the activity of the enzyme lot and was chosen appropriate to have the assay in the linear range, typical concentrations were in the range of 0.003 μg/mL. The reaction was stopped by the addition of 5 μL of a solution of TR-FRET detection reagents (5 nM streptavidine-XL665 [Cisbio Bioassays, Codolet, France] and 1 nM anti-ribosomal protein S6 (pSer236)-antibody from Invitrogen [#44921G] and 1 nM LANCE EU-W1024 labeled ProteinG [Perkin-Elmer, product no. 4D0071]) in an aqueous EDTA-solution (100 mM EDTA, 0.1% (w/v) bovine serum albumin in 50 mM HEPES pH 7.5).
The resulting mixture was incubated for 1 h at 22° C. to allow the formation of complex between the phosphorylated biotinylated peptide and the detection reagents. Subsequently the amount of phosphorylated substrate was evaluated by measurement of the resonance energy transfer from the Eu-chelate to the streptavidine-XL.
Background: In TR-FRET formats the signal depends on donor and acceptor labels being close together.
As usually defined, the IC50 is the concentration that inhibits the measured activity by half. A lower IC50 goes with greater potency. For `CN(CC(O)c1ccccc1)c1ccc2ncc(-c3cc4ccccc4o3)n2n1` (single isomer, unassigned; (+)) [Example 13, (+)-2-{[3-(1-Benzofuran-2-yl)imidazo[1,2-b]pyridazin-6-yl](methyl)amino}-1-phenylethanol], the IC50 is 24 nM.
On to `CN(CC(O)c1ccccc1)c1ccc2ncc(-c3cc4ccccc4o3)n2n1` (single isomer, unassigned; (-)) [Example 12, (−)-2-{[3-(1-Benzofuran-2-yl)imidazo[1,2-b]pyridazin-6-yl](methyl)amino}-1-phenylethanol], for which the IC50 is 4 nM.
Still for that read-out and setting: for `CCN(CCO)c1ccc2ncc(-c3cc4ccccc4o3)n2n1` [Example 1] the value was 20 nM; for `COc1cccc2oc(-c3cnc4ccc(N(C)C[C@H](O)c5cccc(O)c5)nn34)cc12` [Example 9, 3-[(1R)-1-Hydroxy-2-{[3-(4-methoxy-1-benzofuran-2-yl)imidazo[1,2-b]pyridazin-6-yl](methyl)amino}eth-yl]phenol], 4 nM.
`CN(CC(O)c1ccccc1)c1ccc2ncc(-c3cc4ccccc4o3)n2n1` (stereo not shown) [Example 10, 2-{[3-(1-Benzofuran-2-yl)imidazo[1,2-b]pyridazin-6-yl](methyl)amino}-1-phenylethanol] came in with an IC50 of 4 nM. That is a single-digit nanomolar value.
Still for that read-out and setting: for `CN(CC(O)c1cccnc1)c1ccc2ncc(-c3cc4ccccc4o3)n2n1` (stereo not shown) [Example 11, 2-{[3-(1-Benzofuran-2-yl)imidazo[1,2-b]pyridazin-6-yl](methyl)amino}-1-(pyridin-3-yl)ethanol] the value was 2 nM; for `CC(O)CN(C)c1ccc2ncc(-c3cc4ccccc4o3)n2n1` (stereo not shown) [Example 14, 1-{[3-(1-Benzofuran-2-yl)imidazo[1,2-b]pyridazin-6-yl](methyl)amino}propan-2-ol], 9 nM; for `COc1nccc2oc(-c3cnc4ccc(N(C)CC(C)O)nn34)cc12` (stereo not shown) [Example 15, 1-{[3-(4-Methoxyfuro[3,2-c]pyridin-2-yl)imidazo[1,2-b]pyridazin-6-yl](methyl)amino}propan-2-ol], 10 nM.
On the same count and under the same terms, for `OC(CN(c1ccc2ncc(-c3cc4ccccc4o3)n2n1)C1CC1)c1ccccc1` (stereo not shown) [Example 16, 2-{[3-(1-Benzofuran-2-yl)imidazo[1,2-b]pyridazin-6-yl](cyclopropyl)amino}-1-phenylethanol] the value was 24 nM; for `COc1nccc2oc(-c3cnc4ccc(N(C)C(C)CO)nn34)cc12` (stereo not shown) [Example 17, 2-{[3-(4-Methoxyfuro[3,2-c]pyridin-2-yl)imidazo[1,2-b]pyridazin-6-yl](methyl)amino}propan-1-ol], 26 nM.
Same read-out and setting: for `OC(CN(c1ccc2ncc(-c3cc4ccccc4o3)n2n1)C1CC1)c1ccc(F)cc1` (stereo not shown) [Example 18, 2-{[3-(1-Benzofuran-2-yl)imidazo[1,2-b]pyridazin-6-yl](cyclopropyl)amino}-1-(4-fluorophenyl)ethanol] the value was 42 nM.
For the compound `CC(CO)N(C)c1ccc2ncc(-c3cc4ccccc4o3)n2n1` (stereo not shown) [Example 19, 2-{[3-(1-Benzofuran-2-yl)imidazo[1,2-b]pyridazin-6-yl](methyl)amino}propan-1-ol], half-maximal inhibition (IC50) was put at 47 nM.
As to `CC(C)CN(CC(O)c1ccccc1)c1ccc2ncc(-c3cc4ccccc4o3)n2n1` (stereo not shown) [Example 20, 2-{[3-(1-Benzofuran-2-yl)imidazo[1,2-b]pyridazin-6-yl](isobutyl)amino}-1-phenylethanol], the concentration for half-maximal inhibition (IC50) was determined as 48 nM.
As to `CC(C)N(CC(O)c1ccccc1)c1ccc2ncc(-c3cc4ccccc4o3)n2n1` (stereo not shown) [Example 21, 2-{[3-(1-Benzofuran-2-yl)imidazo[1,2-b]pyridazin-6-yl](isopropyl)amino}-1-phenylethanol], the IC50 came out at 52 nM. The IC50 values of the last two compounds are within 1.5-fold of each other.
For the compound `CN(CC(O)c1ccccc1)c1ccc2ncc(-c3cc4ccncc4o3)n2n1` (stereo not shown) [Example 22, 2-{[3-(Furo[2,3-c]pyridin-2-yl)imidazo[1,2-b]pyridazin-6-yl](methyl)amino}-1-phenylethanol], the IC50 turned out to be 1 nM. Compared with the last compound, the IC50 is about 52-fold lower.
On the same count and under the same terms, the result for `CN(CC(O)c1ccccc1)c1ccc2ncc(-c3cc4cnccc4o3)n2n1` (stereo not shown) [Example 23, 2-{[3-(Furo[3,2-c]pyridin-2-yl)imidazo[1,2-b]pyridazin-6-yl](methyl)amino}-1-phenylethanol] reads 1 nM; that for `COc1nccc2oc(-c3cnc4ccc(N(C)CC(O)c5ccccc5)nn34)cc12` (stereo not shown) [Example 24, 2-{[3-(4-Methoxyfuro[3,2-c]pyridin-2-yl)imidazo[1,2-b]pyridazin-6-yl](methyl)amino}-1-phenylethanol], 3 nM.
On the same count and under the same terms, the result for `CCOc1nccc2oc(-c3cnc4ccc(N(C)CC(O)c5ccccc5)nn34)cc12` (stereo not shown) [Example 25, 2-{[3-(4-Ethoxyfuro[3,2-c]pyridin-2-yl)imidazo[1,2-b]pyridazin-6-yl](methyl)amino}-1-phenylethanol] reads 5 nM.

In a further test the target is T1, human full-length MKNK1. The test can be described thus: MKNK1 kinase assay (TR-FRET, 10 μM ATP). It counts as biochemical. The following applies: ATP final conc. 10 μM; 15 min preincubation. On the procedure: MKNK1-inhibitory activity of compounds of the present invention was quantified employing the MKNK1 TR-FRET assay as described in the following paragraphs.
As substrate for the kinase reaction the biotinylated peptide biotin-Ahx-[…] (C-terminus in amide form) was used which can be purchased e.g. form the company Biosyntan (Berlin-Buch, Germany).
as §1, with “16.7 μM=>final” for “3.3 mM=>final”, “10 μM)” for “2 mM)”, “45” for “30”, “0.05 μg/ml.” for “0.003 μg/mL.”, “[…]” for “S6”, “AD0071])” for “4D0071])”
The resulting mixture was incubated for 1 h at 22° C. to allow the formation of complex between the phosphorylated biotinylated peptide and the detection reagents. Subsequently the amount of phosphorylated substrate was evaluated by measurement of the resonance energy transfer from the Eu-chelate to the streptavidine-XL. Therefore, the fluorescence emissions at 620 nm and 665 nm after excitation at 350 nm were measured in a TR-FRET reader, e.g. a Rubystar (BMG Labtechnologies, Offenburg, Germany) or a Viewlux (Perkin-Elmer). The ratio of the emissions at 665 nm and at 622 nm was taken as the measure for the amount of phosphorylated substrate.
For the compound `CCN(CCO)c1ccc2ncc(-c3cc4ccccc4o3)n2n1` [Example 1], the IC50 amounted to 7 nM.
`CN(C[C@H](O)c1cccc(O)c1)c1ccc2ncc(-c3cc4ccccc4o3)n2n1` [Example 3] came in with an IC50 of 1 nM.
Still for that read-out and setting: for `COc1cccc2oc(-c3cnc4ccc(N(C)C[C@H](O)c5cccc(O)c5)nn34)cc12` [Example 9, 3-[(1R)-1-Hydroxy-2-{[3-(4-methoxy-1-benzofuran-2-yl)imidazo[1,2-b]pyridazin-6-yl](methyl)amino}eth-yl]phenol] the value was 2 nM; for `CN(CC(O)c1ccccc1)c1ccc2ncc(-c3cc4ccccc4o3)n2n1` (stereo not shown) [Example 10, 2-{[3-(1-Benzofuran-2-yl)imidazo[1,2-b]pyridazin-6-yl](methyl)amino}-1-phenylethanol], 3 nM.
